Data published in patent publication US20140301961A1, “COMPOUNDS WITH ANTI-AGING ACTIVITIES” (priority 2011, published 2014).

Experiments:
[1] = tested on: Kallikrein 8; assay: Kallikrein 8 ELISA in human normal keratinocytes; format: cell-based; conditions: 4 days stimulation (FIG. 14)
Description: Keratinocytes were cultured in commercially available keratinocyte medium M154 (Cascade Biologics/Invitrogen) # M154500 with a final calcium […]. Supplements were added meeting following final concentrations of growth factors; bovine pituitary extract (BPE), 0.2% v/v·bovine insulin, 5 μg/ml·hydrocortisone, 0.18 μg/ml·bovine transferrin, 5 μg/ml·human epidermal growth factor, 0.2 ng/ml.
Keratinocytes used for Kallikrein 8 experiments were cultured as described in example 2.1. Experiments were performed in monolayers with 80% confluence. The cells were stimulated for 4 days prior to kallikrein 8 analysis with the different actives and then culture supernatant were collected and stored in −20° C. until further analysis. Kallikrein 8 production was analysed in cell culture supernatants from stimulated keratinocytes using a ELISA assay specific for Kallikrein 8 (Uscn Life Science Inc, E90690Hu). Results were compared with cell culture supernatants from DMSO vehicle treated cells. The assays utilized a 96-well microplate format and were processed according to the manufacturer's protocol, including generation of a standard curve prepared in background assay diluents. Absorbance of the assay dye was read at a Synergy HT plate reader. Values that fell within the linear range of the calibration assay were accepted. Quantities were determined by comparison to standard curves obtained for KLK8.

[2] = tested on: MMP-1, MMP-2, MMP-3, MMP-8, MMP-9; assay: UV-induced MMP production in human skin explants; format: cell-based; conditions: 1% in propylene glycol (FIG. 2)
Description: MMP inhibition activity for compound of the invention was tested on human skin explants. Skin explants were sourced from 2 healthy caucasian female breast skin donor […]. A cream containing all-trans retinoic acid (tretinoin) (0.05%) was added topically using positive displacement pipette (5 ul/cm^2) to each explants. A similar cream base without tretinoin was used as placebo control. […] Solutions were kept under nitrogen and used immediately after preparation. Propylene glycol was used as vehicle control for the compounds of the invention in this study. Fluorokine MultiAnalyte Profiling (xMAP) using the BioPlex (ex. Biorad) dual laser flow-based sorting and detection analyzers manufactured by Luminex corporation (Luminex, Austin, Tex.) was employed to measure levels of MMP in conditioned media samples of stimulated dermal fibroblasts. The technology incorporated polystyrene microspheres dyed internally with differing ratios of two spectrally distinct fluorophores to create a family of different spectrally addressed bead sets. […] Samples were analyzed using the Bio-Plex suspension array system and Bio-Plex Manager software 4.0 (Bio-Rad Laboratories, Hercules, Calif.). Quantities were determined by comparison to standard curves obtained for the different MMP.

[3] = tested on: Plasminogen activator (PLAT); assay: Plasminogen activator (PLAT) activation
[4] = In vitro skin permeation, static Franz diffusion cells; format: in vitro ADME; conditions: 0.5% w/w in a basic formulation, topical, 24 hours, pig skin (FIG. 1)
From the text: The in vitro skin permeation experiments were developed and validated according to the Organization for Economic Co-Operation and Development adopted guideline 428 (OECD guideline for the testing of chemicals. Skin absorption: in vitro method. Guideline 428 (Paris, April 2004, updated January 2011)).
For this investigation, static Franz glass diffusion cells (Permegear, USA) were used. These cells consist of donor and receptor chambers in between which a piece of porcine skin was positioned (thickness 800 μm). About 20 mg/cm^2 of each formulation were applied on the skin surface through the donor compartment in triplicate for each formulation. The pig skin samples were equilibrated for 30 minutes, and air bubbles were removed. The cells were kept at constant temperature with a circulating water flow at 37° C. and the receptor compartment content (ethanol/water 50:50) was continuously agitated by magnetic stirrers.
After an exposure time of 24 hours, the diffusion cells were dismounted and each active was analysed in each compartment. • the non absorbable dose: the skin surface was washed with 10.0 ml of methanol and one tape-strip was made in order to remove the residual donor samples. • the potentially absorbable dose: the tape stripping procedure was used in order to separate the stratum corneum from the skin sample. […]

[5] = tested on: human reconstructed epidermis (SkinEthic model); assay: In vitro skin irritation, OECD guideline 439; format: cell-based; conditions: pure compound, cytotoxicity assay on reconstructed epidermis
Description: The studies, aimed at evaluating the capability of the test compound to induce skin irritation effects by a cytotoxicity assay on in vitro human reconstructed epidermis (SkinEthic), were carried out according to the ECVAM protocol of Apr. 27, 2007, the B46 method of the official journal of the European union, dated Aug. 14, 2009 and the OECD guideline 439.

[6] = tested on: connective tissue growth factor (CTGF); assay: Affymetrix gene array on skin explants, CTGF; format: cell-based, human; conditions: topical, 24 hours, cut-off |log 2−ratio|>1
From the text: (§1) Subcutaneous fat from full thickness skin, obtained from surgical waste material from breast reduction procedures, was removed with a scalpel. Three healthy Caucasian female donors were used for this study. The female donors differed from those of the skin-treatment study outlined previously 8 mm punch biopsies were taken from the skin (and these biopsies are now referred to as skin explants). Skin explants were put on Milipore cell culture inserts (12 mm diameter). Inserts containing skin explants were put in 6-well plates (one insert/well) and 1 mL of supplemented keratinocyte medium (ex Cascade Biologics) was added to each well. A tretinoin-containing cream (Aberela® ex. Janssen): 0.05% tretinoin in the cream, was applied topically to each explant (5 μL/cm^2) using a positive displacement pipette. A placebo cream without tretinoin was used as a control. The skin explants were incubated with tretinoin for 24 hours at 37° C. in 5% CO2-humidified air.
(§2) RNA concentration was measured with ND-1000 spectrophotometer (ex. NanoDrop Technologies) and RNA quality was evaluated using the Agilent 2100 bioanalyzer system (ex. Agilent Technologies). 250 nanograms of total RNA from each skin or skin explant sample was used to prepare biotinylated fragmented cRNA according to the GeneChip® 3′IVT Express Kit Manual (PN702646 Rev 1, ex. Affymetrix Inc.). Affymetrix GeneChip® expression arrays (Human Genome U133 Plus 2.0) were hybridized for 16 hours in a 45° C. incubator, rotated at 60 rpm. According to the GeneChip Expression Wash, Stain and Scan Manual (PN 702731 Rev 2, ex. Affymetrix Inc.) the arrays were washed and stained using the Fluidics Station 450 and scanned using the GeneChip® Scanner 3000 7G.
Analysis of the gene expression data was carried out in the statistical computing language R (http://www.r-project.org) using packages available from the Bioconductor project (www.bioconductor.org). The raw data was normalized using the robust multi-array average (RMA) method. In order to search for differentially expressed genes between the X samples and the Y samples group an empirical Bayes moderated t-test was then applied using the ‘limma’ package.
Skin explants were obtained as detailed in Example 3.1. Compounds naringenin and N-acetyl aspartic acid were topically applied on skin explants for 24 hours and investigated with Affymetrix gene array.

[7] = tested on: heparin-binding EGF-like growth factor (HBEGF); assay: Affymetrix gene array on skin explants, HBEGF; format: cell-based, human; conditions: topical, 24 hours, cut-off |log 2−ratio|>1
From the text: as §1, §2
Analysis of the gene expression data was carried out in the statistical computing language R (http://www.r-project.org) using packages available from the Bioconductor project (www.bioconductor.org). The raw data was normalized using the robust multi-array average (RMA) method. […]

[8] = tested on: keratin 6; assay: Keratin-6 production in normal human keratinocytes; format: cell-based; conditions: normal human keratinocytes (FIG. 11)

C=C1C[C@]23C[C@@]1(O)CC[C@H]2[C@@]12C=C[C@H](O)[C@@](C)(C(=O)O1)[C@@H]2[C@@H]3C(=O)O [Gibberellic acid, (3S,3aS,4S,4aS,7S,9aR,9bR,12S)-7,12-dihydroxy-3-methyl-6-methylene-2-oxoperhydro-4a,7-methano-9b,3-propenoazuleno[1,2-b]furan-4-carboxylic acid]
synthesis of kallikrein 8 [1]: significant increase in the synthesis of kallikrein 8 | inhibition of UV-induced MMP-1, MMP-2, MMP-3, MMP-8, MMP-9 production [2]: inhibition | Plasminogen activator (PLAT) activation [3]: activated

CC(=O)N[C@@H](CC(=O)O)C(=O)O [N-Acetyl aspartic acid, (2S)-2-Acetamidobutanedioic acid]
penetration into the skin [4]: penetration of each active into the skin | synthesis of kallikrein 8 [1]: significant increase in the synthesis of kallikrein 8 | inhibition of UV-induced MMP-1, MMP-2, MMP-3, MMP-8, MMP-9 production [2]: inhibition | skin irritation [5]: non-irritating to skin | CTGF gene expression [6]: 1.03 log 2−ratio | Plasminogen activator (PLAT) activation [3]: activated | HBEGF gene expression [7]: No

O=C1C[C@@H](c2ccc(O)cc2)Oc2cc(O)cc(O)c21 [Naringenin, (S)-2,3-Dihydro-5,7-dihydroxy-2-(4-hydroxyphenyl)-4H-1-benzopyran-4-one]
penetration into the skin [4]: penetration of each active into the skin | synthesis of kallikrein 8 [1]: significant increase in the synthesis of kallikrein 8 | keratin-6 production [8]: stimulated keratin-6 production | skin irritation [5]: non-irritating to skin | CTGF gene expression [6]: 1.05 log 2−ratio | HBEGF gene expression [7]: 1.19 log 2−ratio
